According to publication PMC10641814 (Journal of Medicinal Chemistry, 2023):

How the values were obtained:
[1] = target: T1, h5-HT6R (Homo sapiens, UniProt P50406); test: 5-HT6R radioligand binding ([3H]-LSD) in HEK293 cells stably expressing h5-HT6R; details: 2 nM [3H]-LSD, mean of three independent experiments, read-out: Ki ± SEM [nM] 5-HT6R
T1 construct: expressed in transfected cells

[2] = target: T2, hMAO-B (Homo sapiens, UniProt P27338); test: MAO-B inhibition, fluorometric method, p-tyramine substrate; type: biochemical; details: two experiments in duplicate
T2 construct: purchased Sigma-Aldrich M7441
T2 sequence (P27338 1-520): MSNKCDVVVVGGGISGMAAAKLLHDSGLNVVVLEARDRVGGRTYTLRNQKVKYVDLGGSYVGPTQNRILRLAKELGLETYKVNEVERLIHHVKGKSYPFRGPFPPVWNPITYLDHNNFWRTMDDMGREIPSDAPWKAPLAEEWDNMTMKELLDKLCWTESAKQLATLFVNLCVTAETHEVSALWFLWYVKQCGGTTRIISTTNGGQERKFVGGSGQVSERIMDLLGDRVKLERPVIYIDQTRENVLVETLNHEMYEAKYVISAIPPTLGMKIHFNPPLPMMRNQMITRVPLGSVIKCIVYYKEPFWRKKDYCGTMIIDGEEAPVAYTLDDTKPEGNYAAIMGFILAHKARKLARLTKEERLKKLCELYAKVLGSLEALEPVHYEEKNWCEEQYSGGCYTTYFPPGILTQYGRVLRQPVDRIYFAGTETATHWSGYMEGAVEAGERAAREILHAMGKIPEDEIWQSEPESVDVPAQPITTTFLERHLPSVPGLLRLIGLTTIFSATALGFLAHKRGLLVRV

[3] = system: hippocampus of rats injected with oAβ25–35; test: Western blot of hippocampal AD biomarkers in oAβ25–35-injected rats; type: in vivo, rat; details: oAβ25–35 icv
Procedure: As previously detailed,[37],[64] to induce the acute model of AD (oAβ25–35 model), rats were divided into three groups. […] The animals were anesthetized with an intraperitoneal (ip) injection of a mixture of ketamine and xylazine (80 and 10 mg/kg b.w., respectively). Scrambled peptide and oAβ25–35 were injected directly into the lateral ventricles at a rate of 2 μL/min using a David-Kopf stereotaxic apparatus (coordinates of injection: AP −1 mm, L ±1.5 mm, DV −3.5 mm).
On day 14, animals were subjected to a behavioral memory test (T-maze) and sacrificed on day 15 by decapitation.
(§1) 2—A preventive approach: This treatment was started at the same time as the induction of amyloid toxicity and consisted of implanting ip, and during the same anesthetic procedure necessary for the icv injection of oAβ25–35, an osmotic pump (Alzet-EML2, Charles-River, France) which continuously delivered the molecules for 1 week at the dose of 3 mg/kg/day. On day 7, animals were submitted to a behavioral memory test (T-maze) and sacrificed on day 8 by decapitation.
At the time of sacrifice, all hippocampi were dissected out, weighed, and rapidly frozen in liquid nitrogen for Western blot (WB) analysis.
Western blot analyses were performed on the whole hippocampus as previously described.[37] All antibodies used are detailed in Table S3. Briefly, after sacrifice, hippocampi were microdissected, weighed, immediately frozen in liquid nitrogen, and stored at −20 °C. Tissues were sonicated (VibraCell; Sonics & Materials, USA) in a lysis buffer[37] and centrifuged (4 °C). Supernatants were collected, and the protein concentration was measured using a bicinchoninic Acid (BCA) assay (ThermoFisher Scientific, France). […] The membranes were incubated overnight (4 °C) with the primary antibody, washed, and then incubated for 2 h with the appropriate horseradish peroxidase-conjugated secondary antibody. […] The intensity of the immunoreactive signals was quantified using Image-J software (NIH, Bethesda, […], USA). β-Tubulin (β-Tub) was used as a loading control for all experiments.

[4] = system: oAβ25–35-induced memory deficits in rats; test: oAβ25–35-induced memory deficits in T-maze test in rats; type: in vivo, rat
Procedure: For the AD model, adult male Sprague–Dawley rats (Janvier Lab., France) weighing 260–280 g (8 weeks) at the beginning of the experiments were housed 1 week before experiments in a standard animal facility of the University of Montpellier (CECEMA, registration number E34-172-23) (12/12 h light/dark cycle with lights on at 07:00; 21 ± 1 °C, food and water ad libitum). All experiments, including sacrifices, were performed in conscious rats between 09:00 and 12:00, during the diurnal period of the circadian rhythm. Male has been preferred over female because the latter may present a confounding factor of the estrous cycle, a parameter that needs to be systematically controlled. Animal procedures were conducted in strict adherence to the European Union Directive of 2010 (2010/63/EU). The National French Animal Welfare Committee and the local committee at the University of Montpellier approved all protocols (authorization: CEEA-LR-12160). All efforts were made to minimize the number of animals used, potential pain, suffering, and distress.
As previously detailed,[37],[64] to induce the acute model of AD (oAβ25–35 model), rats were divided into three groups. One group had no surgery (Naive group), a second set of animals received an intracerebroventricular (icv) injection of incubated scrambled peptide (negative control groups—10 μg/rat—Sc), and a third set received an icv injection of oAβ25–35 (AD groups—10 μg/rat—Aβ). The animals were anesthetized with an intraperitoneal (ip) injection of a mixture of ketamine and xylazine (80 and 10 mg/kg b.w., respectively). Scrambled peptide and oAβ25–35 were injected directly into the lateral ventricles at a rate of 2 μL/min using a David-Kopf stereotaxic apparatus (coordinates of injection: AP −1 mm, L ±1.5 mm, DV −3.5 mm).
1—A curative approach: This treatment was started 1 week after the induction of amyloid toxicity (icv injection of oAβ25–35) and consisted of 2 ip injections (1.5 mg/kg per injection) per day for 1 week. On day 14, animals were subjected to a behavioral memory test (T-maze) and sacrificed on day 15 by decapitation.
as §1
As previously reported, the T-maze test was used to rapidly assess cognitive ability in rats, especially the short-term memory deficits, when performed in two successive sessions.[37],[38],[64],[65] The T-maze consisted of two short arms (A and B), extending from a longer alley (C) and enclosed with high walls. The test involved two trials, separated by 1 h. During the training session, one short arm (B) was closed. Rats were placed at the end of the long alley, allowed to visit the maze for 10 min, and then returned to their home cage. […] The number of visits and time spent in each arm were measured. The results were expressed as the ratio of the time spent in the initially closed novel arm, over the time spent in the previous arm, and as a ratio of the number of entries into the novel arm over the familiar one. […]

[5] = 1.5 mg/kg ip twice a day for 7 days

T1 sequence (P50406 whole entry): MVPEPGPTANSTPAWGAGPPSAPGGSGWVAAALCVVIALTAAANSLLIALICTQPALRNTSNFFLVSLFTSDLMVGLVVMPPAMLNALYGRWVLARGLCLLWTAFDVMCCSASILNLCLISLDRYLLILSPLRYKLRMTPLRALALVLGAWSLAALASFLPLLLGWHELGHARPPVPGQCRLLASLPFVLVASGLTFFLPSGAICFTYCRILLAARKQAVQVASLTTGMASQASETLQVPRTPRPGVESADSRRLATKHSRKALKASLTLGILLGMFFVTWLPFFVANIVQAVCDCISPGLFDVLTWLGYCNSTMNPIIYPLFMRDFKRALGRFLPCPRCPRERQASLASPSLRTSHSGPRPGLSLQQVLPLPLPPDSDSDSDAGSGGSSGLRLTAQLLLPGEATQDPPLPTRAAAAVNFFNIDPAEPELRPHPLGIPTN

Compound | Ki [1] [nM] | pIC50 ± SEM (MAO-B) [2] | also measured
Cl.c1ccc(Cn2ccc3c(N[C@H]4CCNC4)nc4ccccc4c32)cc1 [Compound 3] | 21 ± 3 | 6.57 ± 0.03 | –
Cl.Fc1cccc(Cn2ccc3c(N[C@H]4CCNC4)nc4ccccc4c32)c1 [Compound 4] | 21 ± 2 | 6.16 ± 0.05 | –
Cl.Clc1cccc(Cn2ccc3c(N[C@H]4CCNC4)nc4ccccc4c32)c1 [Compound 5, (S)-1-(3-Chlorobenzyl)-N-(pyrrolidin-3-yl)-1H-pyrrolo[3,2-c]quinolin-4-amine Hydrochloride] | 7 ± 1 | 6.92 ± 0.04 | –
Cl.Clc1cccc(Cn2ccc3c(N[C@@H]4CCNC4)nc4ccccc4c32)c1 [Compound 6] | 30 ± 4 | 6.83 ± 0.01 | –
Brc1cccc(Cn2ccc3c(N[C@H]4CCNC4)nc4ccccc4c32)c1.Cl [Compound 7] | 10 ± 1 | 6.89 ± 0.12 | –
COc1cccc(Cn2ccc3c(N[C@H]4CCNC4)nc4ccccc4c32)c1.Cl [Compound 8] | 25 ± 3 | 6.86 ± 0.07 | –
Cl.Clc1cccc(Cn2ccc3c(NC[C@H]4CCCN4)nc4ccccc4c32)c1 [Compound 9] | 214 ± 26 | 5.70 ± 0.04 | –
Cl.Clc1cccc(Cn2ccc3c(NC[C@@H]4CCCN4)nc4ccccc4c32)c1 [Compound 10, (S)-1-(3-Chlorobenzyl)-N-(pyrrolidin-2-ylmethyl)-1H-pyrrolo[3,2-c]quinolin-4-amine Hydrochloride] | 226 ± 30 | 6.52 ± 0.04 | –
Cl.Clc1cccc(Cn2ccc3c(NC[C@H]4CCNC4)nc4ccccc4c32)c1 [Compound 11] | 140 ± 18 | 8.02 ± 0.12 | –
Cl.Clc1cccc(Cn2ccc3c(NC[C@@H]4CCNC4)nc4ccccc4c32)c1 [Compound 12] | 122 ± 10 | 6.52 ± 0.04 | –
CN(C)C1CCN(c2nc3ccccc3c3c2ccn3Cc2cccc(Cl)c2)C1.Cl (stereo not shown) [Compound 13] | 1340 ± 156 | 7.43 ± 0.04 | –
Cl.NC[C@@H]1CCN(c2nc3ccccc3c3c2ccn3Cc2cccc(Cl)c2)C1 [Compound 14] | 1520 ± 220 | 8.00 ± 0.00 | –
CNC1CN(c2nc3ccccc3c3c2ccn3Cc2cccc(Cl)c2)C1.Cl [Compound 15] | 723 ± 87 | 8.22 ± 0.14 | –
Cl.Clc1cccc(Cn2ccc3c(N4CCCNCC4)nc4ccccc4c32)c1 [Compound 17] | 138 ± 15 | 7.69 ± 0.12 | –
Cl.Clc1cccc(Cn2ccc3c(N4C[C@H]5C[C@@H]4CN5)nc4ccccc4c32)c1 [Compound 18] | 372 ± 48 | 6.73 ± 0.02 | –
CN(C)C1CCN(c2nc3ccccc3c3c2ccn3Cc2cccc(Cl)c2)CC1.Cl [Compound 19] | 1270 ± 173 | 5.60 ± 0.02 | –
Cl.Clc1cccc(Cn2ccc3c(N4CC5(CCNC5)C4)nc4ccccc4c32)c1 [Compound 20, 1-(3-Chlorobenzyl)-4-(2,6-diazaspiro[3.4]octan-2-yl)-1H-pyrrolo[3,2-c]quinoline Hydrochloride] | 677 ± 82 | 7.01 ± 0.11 | –
Cl.Clc1cccc(Cn2ccc3c(N4CC5(CNC5)C4)nc4ccccc4c32)c1 [Compound 21] | 920 ± 127 | 6.97 ± 0.05 | –
Cl.Clc1cccc(Cn2ccc3c(C4=CCNCC4)nc4ccccc4c32)c1 [Compound 22] | 34 ± 4 | 6.67 ± 0.04 | –
Cl.Clc1cccc(Cn2ccc3c(C4CCNCC4)nc4ccccc4c32)c1 [Compound 23, 1-(3-Chlorobenzyl)-4-(piperidin-4-yl)-1H-pyrrolo[3,2-c]quinoline Hydrochloride] | 541 ± 80 | 6.13 ± 0.06 | –
Cl.Clc1cccc(Cn2ccc3c(CN4CCNCC4)nc4ccccc4c32)c1 [Compound 24] | 119 ± 14 | 5.21 ± 0.02 | –
Cl.Clc1cccc(CNc2cc(N3CCNCC3)nc3ccccc23)c1 [Compound 25] | 152 ± 18 | 5.36 ± 0.03 | –
Cl.Clc1cccc(CNc2ccnc(N3CCNCC3)c2)c1 [Compound 26] | 5450 ± 793 | 5.18 ± 0.04 | –
O=S(=O)(c1ccccc1)c1cnc2c(N3CCNCC3)cccc2c1 [Intepirdine, reference compound] | – | – | hippocampal Caspase-3 and Pro-caspase-3 expression, curative strategy [3, 5]: decreased expression of Caspase-3 and Pro-caspase-3; hippocampal PSD-95 and SYN levels, curative treatment [3, 5]: reversed only the SYN level; hippocampal Caspase-3 and Pro-caspase-3 expression, preventive treatment ([3]; 3 mg/kg/day osmotic pump 1 week): prevented increased expression of Caspase-3 and Pro-caspase-3; hippocampal GFAP increase ([3]; curative and preventive approach): Neither PZ-1922 nor intepirdine impacted the GFAP increase; effect on oAβ25–35-induced memory deficits in T-maze, curative treatment ([4]; 1.5 mg/kg ip twice a day for 7 days, started 1 week after icv oAβ25–35): only partially reversed the memory deficits; effect on oAβ25–35-induced memory deficits in T-maze, preventive treatment ([4]; 3 mg/kg/day by ip osmotic pump for 1 week, concomitant with icv oAβ25–35): did not exhibit the same preventive effect
